The test system of assay [1] is defense-related genes in excised maize leaves. Kind of assay: Excised leaf bioassay, semi-quantitative RT-PCR of defense marker genes. Format: in vivo, Zea mays. How it is done:
Over a 16.5 hour time-course, excised maize leaves were supplied with either a solution of ZmPEP3 peptide or with a water control. Based on the average volume of ZmPEP3 solution taken up by the maize leaves, each leaf was exposed to around 1.8 nMols of peptide per gram of leaf material over the time course study. Zero hour treatments indicate leaves that were immediately harvested at the beginning of the study; the other time points refer to hours elapsed after leaves were excised and placed into solution. As a control to observe herbivory-induced expression of these genes, a timecourse of exposure to herbivory by Spodoptera frugiperda (fall armyworm, FAW) was performed for comparison. As described in the Material and Methods, when using the semi-quantitative RT-PCR analysis technique, observed band intensity is indicative of initial transcript abundance in a sample, thus bands of greater intensity represent sample with enriched transcript abundance.
Maize tissues that had been harvested and frozen in liquid nitrogen were ground to a fine powder using a porcelain mortar and pestle. Approximately 100 mg of frozen powdered plant material was transferred to a 2 mL microcentrifuge tubes to which 1 mL of Trizol reagent (Invitrogen, Carlsbad Calif.) was added. RNA isolation was performed as per the Trizol instructions, supplemented by an acid:phenol:chloroform partitioning step to minimize contaminating DNA. RNA was solublized in 50 μL diethylpyrocarbonate (DEPC)-treated water. RNA yield was quantified by measuring the A260, and the samples were stored at −20° C.
RNA was reverse transcribed using all components from the RETROscript kit (Ambion, Austin Tex.). The 20 μL reverse transcription reactions were assembled as per kit instructions The reverse transcription reaction was allowed to proceed for one hour at 44° C., followed by a ten minute incubation at 92° C.
Semi-quantitative RT-PCR reactions were assembled as follows: 1.2 μL of the cDNA generated in the reverse transcription reactions was used as template for 25 μL PCR reactions. Each reaction contained Platinum 10×PCR buffer (Invitrogen, Carlsbad Calif.) and the final concentration of Mg^2+ and dNTPs were 1.5 mM and 200 μM, respectively. Platinum Taq polymerase (Invitrogen, Carlsbad Calif.) was added at 0.5 units per reaction, while primers were used at 0.4 μM each. All primers were designed to for an annealing temperature of 56° C., to amplify a product of 250 to 350 base pairs and to span introns when possible. The ZmActin1 gene transcript (GenBank# J01238) has been described in the literature as an effective housekeeping control transcript for the study of maize defense gene expression (Erb et al., 2009), and was therefore used to permit comparisons of relative transcript abundance from sample to sample. Genes to be analyzed for responsiveness to ZmPep3 were all shown in previous work to be associated with either pathogen or herbivore resistance (Erb et al., Plant J 59: 292, 2009; Doehlemann et al., Plant J. 56:181, 2008; Köliner et al., Plant Cell 20: 482, 2008; Chen et al., Phytopathology 94:938, 2004; Chen et al., Phytopathology 97:1094, 2007; Schnee et al., Plant Physiol 130: 2049, 2002; Frey et al., Proc Natl Acad Sci USA. 97:14801, 2000).

The test system of assay [2] is volatile emission from maize leaves. The assay can be described thus: Volatile collection and GC analysis of emitted volatiles from excised maize leaves. The assay is classed as in vivo, Zea mays. As to the method:
Volatiles were collected by a previously described method (Schmelz et al., Planta. 214:171, 2001). Briefly, excised leaves were placed in glass cylinders (Analytical Research Systems, Gainesville, Fla., USA) and maintained under their original lighting conditions. Clean, humidified air was passed through the cylinders (550 ml/min) and the leaf-emitted volatiles were trapped on 50 mg Super Q (80/100 mesh; Alltech, Deerfield, Ill., USA) for 30 minutes. Super Q traps were eluted with 150 μl methylene chloride with 400 ng of nonyl acetate added as an internal standard. At least three leaf replicates were used for each treatment. Volatiles were analyzed by gas chromatography-mass spectrometry (GC-MS) using an Agilent (Agilent Technologies, Inc., Santa Clara, Calif.) 7890A gas chromatograph (carrier gas; He at 1.2 ml min^−1; splitless injector, temperature 220° C., injection volume 1 μl) with an DB-1MS column (100% Dimethylpolysiloxane; 15 m long, 250 μm i.d., 0.1 μm film thickness). Temperatures were programmed from 40° C. (0.5 min hold) at 12° C. min^−1 to 180° C. then 220° C. (2.0 min hold for the post run). Signals were captured with a flame ionization detector (250° C.). The GC was coupled to an HP 5973 quadrupole-type mass selective detector with transfer line, source, and quadrupole temperatures of 230° C., 230° C. and 150° C., respectively. […] Volatile compounds were identified by comparison of retention times with authentic standards and by comparison of mass spectra with Wiley and NIST libraries.

Where [3] appears, read: later time points, vs water-supplied leaves.

As to “ZmPEP3: 23 amino acid maize plant elicitor peptide TRTPPWPPCPPEEGSGGNGGSHN (SEQ ID NO: 3) (Zea mays)”, the “number of defense-related genes identified as ZmPEP3-responsive” value in assay [1] (excised leaf assays) is “twenty”. Also, in assay [1] (excised leaves, around 1.8 nMols of peptide per gram of leaf), the “time at which AOS transcript increases in abundance” value amounted to 2 h. Also, in assay [1] (excised leaves, around 1.8 nMols of peptide per gram of leaf, early time points, vs water), the “endochitinase A transcript levels” value is reported as “increased transcript levels at all early time points”. Besides, the IGL expression entry in assay [1] (later time points) was “strongly induced”. Moreover, in assay [1] (setting [3]), the AOS transcript levels entry is given as “markedly increased” and the TPS23 transcript abundance result is “increased greatly”. Besides, in assay [1] (later timepoints, not detectable in water-supplied leaves), the peroxidase transcript accumulation result is listed as “marked induction of transcript accumulation”. The “increase in total defense volatile emission compared to water-supplied leaves” value in assay [2] (1.8 nMol peptide per gram of leaf material) is recorded as 91%. Moreover, the “volatile profile vs water-supplied leaves” value in assay [2] (18 or 180 fMols of peptide per gram of leaf, 30 minutes collection) was “almost the same as leaves supplied with water”. Also, in assay [2] (30 minutes collection), the “lowest concentration with significant increases in defense volatile emission” value was 1.8 pMol ZmPEP3 peptide per gram of leaf material. Besides, the “profile of volatile compounds emitted in thirty minutes” value in assay [2] (GC, vs water-supplied leaves) was “Many molecules are detected”. Further, the “difference in terpenes emitted, ZmPep3 versus Gln-18:3” value in assay [2] (equivalent molar concentrations) is reported as “no significant quantitative difference”. Further, in assay [2] (in vivo), the “indole emission relative to damage alone” value is “increased above damage alone” and the “spectrum of elicited volatile components compared with S. exigua herbivory” value is listed as “same spectrum of volatile components”. Moreover, in assay [2] (six hour period), the “increase in DMNT emission over water-treated leaves” value stood at 6 fold, the “increase in alpha-bergamotene emission over water-treated leaves” value was “over a thousand fold”, the “increase in beta-caryophyllene emission over water-treated leaves” value was “over 100 fold” and the “increase in beta-farnesene emission over water-treated leaves” value is on record as “over 900 fold”. Besides, in assay [2] (six hour period), the “increase in indole emission over water-treated leaves” value is “over 100 fold” and the “increase in nerolidol emission over water-treated leaves” value was found to be 360 fold.
